Measurements taken from patent US6825354B2 (Wyeth Holdings Corporation, priority 1999, dated 2004).
Read-outs that look alike come from different tables or passages of the source. Values belong to the compound of their own block, whether it stands above or below them.

Key:
[1] = system: THP-1 cells (soluble TNF-α); assay: Human monocytic THP-1 cell differentiation assay for soluble proteins (THP soluble protein assay); type: cell-based; settings: negative = less TNF-α; for inhibition at 3 µM: Homo sapiens, THP-1, percent change from vehicle positive control, read-out: TNFalpha at 3 uM, THP (percent change); for TNFalpha at 3 uM, THP (percent change): percent change from vehicle positive control
Source text: Mitogenic stimulation of THP-1 cells cause differentiation into macrophage like cells with concomitant secretion of tumor necrosis factor (TNF-a) and TNF receptor (TNF-R p75/80 and TNF-R p55/60) and Interleukin-8 (IL-8), among other proteins. […] The release of membrane bound TNF-a and possibly TNF-R p75/80 and TNF-R p55/60, but not IL-8, is mediated by an enzyme called TNF-α converting enzyme or TACE.
THP-1 cells (from ATCC) are a human monocytic cell line which were obtained from the peripheral blood of a person with acute monocytic leukemia They can be grown in culture and differentiated into macrophage like cells by stimulation with mitogens.
Each vial of cells are cultured for about two weeks prior to being used for an assay and then are used for only 4 to 6 weeks to screen compounds.
Cell exposure to DMSO was limited to 0.1% final concentration. […] Compounds can be evaluated for their effect on basal (non-stimulated) shedding of the receptors by replacing the LPS with […] of THP-1 media Plates are placed into an incubator set at 5% CO2 and at 37° C. After 4 hours of incubation, […] of tissue culture supernatant (TCS) is removed for use in an TNF-α ELISA. Following 24 hours of incubation, […] of TCS is removed and used for analysis in TNF-R p75/80, TNF-R p55/60 and IL-8 ELISAs.
In addition, at the 24 hours timepoint, and the cells for each treatment group are collected by resuspension in 500 μl/well of THP-1 media and transferred into a FACS tube. […] The samples are run on a Becton Dickinson FaxCaliber FLOW cytometry machine and the amount of dye taken up by each cell is measured in the high red wavelength (FL3). Only cells with compromised membranes (dead or dying) can take up PI. The percent of live cells is calculated by the number of cells not stained with PI, divided by the total number of cells in the sample. The viability values calculated for the drug treated groups were compared to the viability value calculated for the vehicle treated mitogen stimulated group (“vehicle positive control”) to determine the “percent change from control”. This “percent change from control” value is an indicator of drug toxicity.
The quantity of soluble TNF-α, TNF-R p75/80 and TNF-R p55/60 and IL-8 in the TCS of the ThP-1 cell cultures are obtained with commercially available ELISAs from R&D Systems, by extrapolation from a standard curve generated with kit standards. The number of cells that either take up or exclude PI are measured by the FLOW cytometry machine and visualized by histograms using commercially available Cytologic software for each treatment group including all controls.
Biological variability in the magnitude of the response of THP-1 cell cultures requires that experiments be compared on the basis of percent change from “vehicle positive control” for each drug concentration. Percent change in each soluble protein evaluated from the “vehicle positive control” was calculated for each compound concentration with the following formula: [formula]
For the soluble protein (TNF-a, p75/80, p55/60, IL-8) studies under stimulated conditions, the mean pg/ml of duplicate wells were determined and the results expressed as percent change from “vehicle positive control”. For the soluble protein (p75/80 and p55/60 receptors) studies under non-stimulated conditions, the mean pglml of duplicate wells were determined and the results expressed as percent change from “vehicle positive control” utilizing the following formula: [formula]
IC50 values for each compound are calculated by non-linear regression analysis using customized software utilizing the JUMP statistical package.
For the cell viability studies, the viabilities (PI exclusion) of pooled duplicate wells were determined and the results expressed as % change from “vehicle positive control”.

[2] = target: T1, MMP-1 (Homo sapiens, UniProt P03956); assay: MMP-1 inhibition, thiopeptide or fluorescent peptide substrate; type: biochemical; settings: Table 1, second part; for IC50: read-out: MMP1 IC50; for inhibition at 10 µM: read-out: MMP1 % @ 10 μM
T1 sequence (P03956 100-469): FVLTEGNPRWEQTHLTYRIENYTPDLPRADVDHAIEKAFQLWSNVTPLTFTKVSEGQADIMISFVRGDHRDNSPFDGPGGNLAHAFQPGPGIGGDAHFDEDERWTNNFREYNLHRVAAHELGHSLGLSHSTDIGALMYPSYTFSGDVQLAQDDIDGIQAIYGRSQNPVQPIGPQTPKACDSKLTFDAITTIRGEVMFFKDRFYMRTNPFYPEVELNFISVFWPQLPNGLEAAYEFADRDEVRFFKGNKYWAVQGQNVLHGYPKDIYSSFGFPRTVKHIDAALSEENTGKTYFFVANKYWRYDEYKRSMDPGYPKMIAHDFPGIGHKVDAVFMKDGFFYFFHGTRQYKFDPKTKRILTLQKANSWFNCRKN
Experimental: (§1) The enzyme activity is measured by the rate of the color increase. The thiopeptide substrate is made up fresh as a 20 mM stock in 100% DMSO and the DTNB is dissolved in 100% DMSO as a 100 mM stock and stored in the dark at room temperature. Both the substrate and DTNB are diluted together to 1 mM with substrate buffer (50 mM HEPES pH 7.5, 5 mM CaCl2) before use. The stock of enzyme is diluted with buffer (50 mM HEPES, pH 7.5, 5 mM CaC12, 0.02% Brij) to the desired final concentration.
(§2) Alternatively, a fluorescent peptide substrate is used. In this test procedure, the peptide substrate contains a fluorescent group and a quenching group. Upon cleavage of the substrate by an MMP, the fluorescence that is generated is quantitated on the fluorescence plate reader. The assay is run in HCBC assay buffer (50 mM HEPES, pH 7.0, 5 mM Ca^+2, 0.02% Brij, 0.5% Cysteine), with human recombinant MMP-1, MMP-9, or MMP-13. The substrate is dissolved in methanol and stored frozen in 1 mM aliquots. For the assay, substrate and enzymes are diluted in HCBC buffer to the desired concentrations. Compounds are added to the 96 well plate containing enzyme and the reaction is started by the addition of substrate.
(§3) For either the thiopeptide or fluorescent peptide test procedures, the slope of the line is calculated and represents the reaction rate. […] The mean (x±sem) of the control rate is calculated and compared for statistical significance (p<0.05) with drug-treated rates using Dunnett's multiple comparison test.

[3] = target: TNF-α converting enzyme (TACE) (Homo sapiens, UniProt P78536); assay: TACE inhibition, fluorescent peptidyl substrate; type: biochemical
Sequence of TNF-α converting enzyme (TACE) (P78536 215-824): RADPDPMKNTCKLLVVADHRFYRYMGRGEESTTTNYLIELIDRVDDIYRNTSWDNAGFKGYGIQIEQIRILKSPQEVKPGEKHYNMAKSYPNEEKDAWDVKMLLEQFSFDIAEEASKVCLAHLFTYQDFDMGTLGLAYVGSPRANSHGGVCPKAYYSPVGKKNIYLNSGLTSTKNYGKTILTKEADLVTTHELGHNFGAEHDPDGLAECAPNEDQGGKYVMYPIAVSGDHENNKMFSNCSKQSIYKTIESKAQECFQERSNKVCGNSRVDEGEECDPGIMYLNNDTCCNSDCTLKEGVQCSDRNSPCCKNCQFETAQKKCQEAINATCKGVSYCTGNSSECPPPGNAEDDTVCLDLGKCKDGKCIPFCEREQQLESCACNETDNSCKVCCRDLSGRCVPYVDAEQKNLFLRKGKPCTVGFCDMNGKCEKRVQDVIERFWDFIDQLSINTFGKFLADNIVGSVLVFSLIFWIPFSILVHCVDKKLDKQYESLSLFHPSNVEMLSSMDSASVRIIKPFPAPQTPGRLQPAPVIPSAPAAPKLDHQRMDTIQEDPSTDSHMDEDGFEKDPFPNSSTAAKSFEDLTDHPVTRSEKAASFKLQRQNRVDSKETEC
Experimental: […] The reaction is initiated by addition of a fluorescent peptidyl substrate (final concentration 100 μM) to each well and then shaking on a shaker for 5 sec.
The reaction is read (excitation 340 nm, emission 420 nm) for 10 min. and the increase in fluorescence over time is plotted as a linear line. The slope of the line is calculated and represents the reaction rate.
The mean (x±sem) of the control rate is calculated and compared for statistical significance (p<0.05) with drug-treated rates using Dunnett's multiple comparison test.

[4] = target: MMP-13 (Homo sapiens, UniProt P45452); assay: MMP-13 inhibition, thiopeptide or fluorescent peptide substrate; type: biochemical; settings: for IC50: read-out: MMP13 IC50; for inhibition at 10 µM: read-out: MMP13 % @ 10 μM
Experimental: as §1, §2, §3

[5] = target: MMP-9 (Homo sapiens, UniProt P14780); assay: MMP-9 inhibition, thiopeptide or fluorescent peptide substrate; type: biochemical; settings: for IC50: read-out: MMP9 IC50; for inhibition at 10 µM: read-out: MMP9 % @ 10 μM
Sequence of MMP-9 (P14780 94-707): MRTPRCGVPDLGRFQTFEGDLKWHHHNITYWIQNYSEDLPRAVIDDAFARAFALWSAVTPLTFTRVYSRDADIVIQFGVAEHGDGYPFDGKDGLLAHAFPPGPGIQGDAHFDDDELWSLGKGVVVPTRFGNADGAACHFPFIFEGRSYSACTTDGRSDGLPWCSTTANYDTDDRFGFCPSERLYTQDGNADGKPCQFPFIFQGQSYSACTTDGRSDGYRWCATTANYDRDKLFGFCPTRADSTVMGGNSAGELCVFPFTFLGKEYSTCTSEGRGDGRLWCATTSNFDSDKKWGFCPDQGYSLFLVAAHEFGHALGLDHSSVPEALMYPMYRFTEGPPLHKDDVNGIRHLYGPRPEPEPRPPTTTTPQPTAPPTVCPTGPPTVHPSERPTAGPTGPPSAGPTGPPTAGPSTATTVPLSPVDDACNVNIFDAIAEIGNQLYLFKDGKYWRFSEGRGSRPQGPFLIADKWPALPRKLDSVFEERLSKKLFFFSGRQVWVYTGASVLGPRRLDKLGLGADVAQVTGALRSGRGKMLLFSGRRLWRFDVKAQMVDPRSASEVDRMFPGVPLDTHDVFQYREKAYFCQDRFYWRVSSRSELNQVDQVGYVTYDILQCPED
Experimental: as §1, §2, §3

[6] = Table 1, second part, footnote a: IC50 (nM), read-out: TACE IC50

Compound: CC#CCOc1ccc([S+]([O-])[C@@H](C(=O)NO)c2ccc(Br)cc2)cc1 (single isomer, unassigned) [Example 87]
inhibition at 3 µM [1]: -5%

Compound: CC#CCOc1ccc(SC(C(=O)NO)c2cccc(Br)c2)cc1 (stereo not drawn) [Example 103, 2-{[4-(2-Butynyloxy)phenyl]sulfanyl}-N-hydroxy-2-(3-bromophenyl)acetamide]
inhibition at 3 µM [1]: -15%

Compound: CC#CCOc1ccc(SC(C(=O)NO)c2ccc(OCC)cc2)cc1 (stereo not drawn) [Example 100, 2-{[4-(2-butynyloxy)phenyl]sulfanyl}-N-hydroxy-2-(4-ethoxyphenyl)acetamide]
inhibition at 3 µM [1]: 0%

Compound: CC#CCOc1ccc([S+]([O-])C(C(=O)NO)c2cccc3ccccc23)cc1 (stereo not drawn) [Example 93, 2-{[4-(2-Butynyloxy)phenyl]sulfinyl}-N-hydroxy-2-(1-napthyl)acetamide]
MMP1 % @ 10 μM [2]: 7% | TACE % @ 10 μM ([3]; Table 1, second part, footnote a: % @ 10 μM): 15.63% | MMP13 % @ 10 μM ([4]; Table 1, second part): 17% | TNFalpha at 3 uM, THP (percent change) [1]: 1%

Compound: CC#CCOc1ccc([S+]([O-])[C@@H](C(=O)NO)c2ccc(OC)cc2)cc1 (single isomer, unassigned) [Example 77]
inhibition at 10 µM [2]: 17.5% | IC50 [3]: 201 nM | IC50 ([4]; Table 1, second part): 3690 nM | inhibition at 3 µM [1]: 12% | inhibition at 10 µM ([5]; Table 1, second part): 45.4%

Compound: CC#CCOc1ccc([S+]([O-])C(C(=O)NO)c2ccc(OCC)cc2)cc1 (stereo not drawn) [Example 101, 2-{[4-(2-Butynyloxy)phenyl]sulfinyl}-N-hydroxy-2-(4-ethoxyphenyl)acetamide]
inhibition at 3 µM [1]: -1%

Continued, in another order:

MMP1 % @ 10 μM [2]: 26% | IC50 [3, 6]: 82 nM | MMP13 % @ 10 μM ([4]; Table 1, second part): 71%
Compound: 2-{[4-(2-butynyloxy)phenyl]sulfonyl}-2-(4-chlorophenyl)-N-hydroxyacetamide [Example 102]
TNFalpha at 3 uM, THP (percent change) [1]: −10%

IC50 ([3]; Table 1, first part, read-out: TACE IC50): 74.8 nM | IC50 ([4]; Table 1, first part): 500 nM | IC50 ([5]; Table 1, first part): 2500 nM
Compound: CC#CCOc1ccc(S(=O)(=O)C(CCCCCC)C(=O)NO)cc1 (stereo not drawn) [Example 5, 2-(4-But-2-ynyloxy-benzenelsulfonyl)-octanoic Acid Hydroxamide]

IC50 [2]: 6480 nM | IC50 ([5]; Table 1, second part): 399 nM
Compound: CC#CCOc1ccc([S+]([O-])[C@@H](C(=O)NO)C(C)C)cc1 (stereo partly drawn) [Example 108, R-2-{[4-(2-butynyloxy)phenyl]sulfinyl}-2-isopropyl-N-hydroxyacetamide]
TNFalpha at 3 uM, THP (percent change) [1]: −29%

inhibition at 10 µM [2]: 6.2% | IC50 [3, 6]: 162 nM | inhibition at 10 µM ([4]; Table 1, second part): 59% | inhibition at 10 µM ([5]; Table 1, second part): 25.7%
Compound: CC#CCOc1ccc([S+]([O-])C(C(=O)NO)c2ccccc2)cc1 (single isomer, unassigned) [Example 113, S-2-{[4-(2-butynyloxy)phenyl]sulfinyl}-2-phenyl-N-hydroxyacetamide]
inhibition at 3 µM [1]: 4%

IC50 [2]: 2990 nM | IC50 ([5]; Table 1, second part): 893 nM
Compound: CC#CCOc1ccc([S+]([O-])C(C(=O)NO)C(C)C)cc1 (stereo not drawn) [Example 109, S-2-{[4-(2-butynyloxy)phenyl]sulfinyl}-2-isopropyl-N-hydroxyacetamide]
TNFalpha at 3 uM, THP (percent change) [1]: −20%

inhibition at 10 µM [2]: 18.4% | IC50 [3, 6]: 148 nM | inhibition at 10 µM ([4]; Table 1, second part): 53.4% | inhibition at 10 µM ([5]; Table 1, second part): 0%
Compound: CC#CCOc1ccc([S+]([O-])C(C(=O)NO)c2ccc(F)cc2)cc1 (stereo not drawn) [Example 96]
inhibition at 3 µM [1]: 12%
